Experimental data published in paper PMC3192407, “Both Basic and Acidic Amino Acid Residues of IpTxa Are Involved in Triggering Substate of RyR1” (Journal of Biomedicine and Biotechnology, 2011).
Bridge positions count the residues as written; N and C are the ends. Peptide text beside a SMILES is read from it.

Experiments:
[1] = target: T1, rabbit skeletal RyR1 (native RyR1 in HSR) (Oryctolagus cuniculus, UniProt P11716); experiment: Planar lipid bilayer single-channel recording, native RyR1 in HSR; format: biochemical; settings: native RyR1 in SR, toxin cis, 6-100 nM, -30 mV, [Ca^2+]free 10 μM, pH 7.2, Hill fit, means ± SE of 3–9 experiments; read-out: EC50 for Psubstate
T1 construct: tested using native RyR1 in rabbit skeletal HSR; from tissue; host or cells: rabbit fast-twitch back and leg muscles (heavy SR vesicles)
T1 sequence (P11716 whole entry): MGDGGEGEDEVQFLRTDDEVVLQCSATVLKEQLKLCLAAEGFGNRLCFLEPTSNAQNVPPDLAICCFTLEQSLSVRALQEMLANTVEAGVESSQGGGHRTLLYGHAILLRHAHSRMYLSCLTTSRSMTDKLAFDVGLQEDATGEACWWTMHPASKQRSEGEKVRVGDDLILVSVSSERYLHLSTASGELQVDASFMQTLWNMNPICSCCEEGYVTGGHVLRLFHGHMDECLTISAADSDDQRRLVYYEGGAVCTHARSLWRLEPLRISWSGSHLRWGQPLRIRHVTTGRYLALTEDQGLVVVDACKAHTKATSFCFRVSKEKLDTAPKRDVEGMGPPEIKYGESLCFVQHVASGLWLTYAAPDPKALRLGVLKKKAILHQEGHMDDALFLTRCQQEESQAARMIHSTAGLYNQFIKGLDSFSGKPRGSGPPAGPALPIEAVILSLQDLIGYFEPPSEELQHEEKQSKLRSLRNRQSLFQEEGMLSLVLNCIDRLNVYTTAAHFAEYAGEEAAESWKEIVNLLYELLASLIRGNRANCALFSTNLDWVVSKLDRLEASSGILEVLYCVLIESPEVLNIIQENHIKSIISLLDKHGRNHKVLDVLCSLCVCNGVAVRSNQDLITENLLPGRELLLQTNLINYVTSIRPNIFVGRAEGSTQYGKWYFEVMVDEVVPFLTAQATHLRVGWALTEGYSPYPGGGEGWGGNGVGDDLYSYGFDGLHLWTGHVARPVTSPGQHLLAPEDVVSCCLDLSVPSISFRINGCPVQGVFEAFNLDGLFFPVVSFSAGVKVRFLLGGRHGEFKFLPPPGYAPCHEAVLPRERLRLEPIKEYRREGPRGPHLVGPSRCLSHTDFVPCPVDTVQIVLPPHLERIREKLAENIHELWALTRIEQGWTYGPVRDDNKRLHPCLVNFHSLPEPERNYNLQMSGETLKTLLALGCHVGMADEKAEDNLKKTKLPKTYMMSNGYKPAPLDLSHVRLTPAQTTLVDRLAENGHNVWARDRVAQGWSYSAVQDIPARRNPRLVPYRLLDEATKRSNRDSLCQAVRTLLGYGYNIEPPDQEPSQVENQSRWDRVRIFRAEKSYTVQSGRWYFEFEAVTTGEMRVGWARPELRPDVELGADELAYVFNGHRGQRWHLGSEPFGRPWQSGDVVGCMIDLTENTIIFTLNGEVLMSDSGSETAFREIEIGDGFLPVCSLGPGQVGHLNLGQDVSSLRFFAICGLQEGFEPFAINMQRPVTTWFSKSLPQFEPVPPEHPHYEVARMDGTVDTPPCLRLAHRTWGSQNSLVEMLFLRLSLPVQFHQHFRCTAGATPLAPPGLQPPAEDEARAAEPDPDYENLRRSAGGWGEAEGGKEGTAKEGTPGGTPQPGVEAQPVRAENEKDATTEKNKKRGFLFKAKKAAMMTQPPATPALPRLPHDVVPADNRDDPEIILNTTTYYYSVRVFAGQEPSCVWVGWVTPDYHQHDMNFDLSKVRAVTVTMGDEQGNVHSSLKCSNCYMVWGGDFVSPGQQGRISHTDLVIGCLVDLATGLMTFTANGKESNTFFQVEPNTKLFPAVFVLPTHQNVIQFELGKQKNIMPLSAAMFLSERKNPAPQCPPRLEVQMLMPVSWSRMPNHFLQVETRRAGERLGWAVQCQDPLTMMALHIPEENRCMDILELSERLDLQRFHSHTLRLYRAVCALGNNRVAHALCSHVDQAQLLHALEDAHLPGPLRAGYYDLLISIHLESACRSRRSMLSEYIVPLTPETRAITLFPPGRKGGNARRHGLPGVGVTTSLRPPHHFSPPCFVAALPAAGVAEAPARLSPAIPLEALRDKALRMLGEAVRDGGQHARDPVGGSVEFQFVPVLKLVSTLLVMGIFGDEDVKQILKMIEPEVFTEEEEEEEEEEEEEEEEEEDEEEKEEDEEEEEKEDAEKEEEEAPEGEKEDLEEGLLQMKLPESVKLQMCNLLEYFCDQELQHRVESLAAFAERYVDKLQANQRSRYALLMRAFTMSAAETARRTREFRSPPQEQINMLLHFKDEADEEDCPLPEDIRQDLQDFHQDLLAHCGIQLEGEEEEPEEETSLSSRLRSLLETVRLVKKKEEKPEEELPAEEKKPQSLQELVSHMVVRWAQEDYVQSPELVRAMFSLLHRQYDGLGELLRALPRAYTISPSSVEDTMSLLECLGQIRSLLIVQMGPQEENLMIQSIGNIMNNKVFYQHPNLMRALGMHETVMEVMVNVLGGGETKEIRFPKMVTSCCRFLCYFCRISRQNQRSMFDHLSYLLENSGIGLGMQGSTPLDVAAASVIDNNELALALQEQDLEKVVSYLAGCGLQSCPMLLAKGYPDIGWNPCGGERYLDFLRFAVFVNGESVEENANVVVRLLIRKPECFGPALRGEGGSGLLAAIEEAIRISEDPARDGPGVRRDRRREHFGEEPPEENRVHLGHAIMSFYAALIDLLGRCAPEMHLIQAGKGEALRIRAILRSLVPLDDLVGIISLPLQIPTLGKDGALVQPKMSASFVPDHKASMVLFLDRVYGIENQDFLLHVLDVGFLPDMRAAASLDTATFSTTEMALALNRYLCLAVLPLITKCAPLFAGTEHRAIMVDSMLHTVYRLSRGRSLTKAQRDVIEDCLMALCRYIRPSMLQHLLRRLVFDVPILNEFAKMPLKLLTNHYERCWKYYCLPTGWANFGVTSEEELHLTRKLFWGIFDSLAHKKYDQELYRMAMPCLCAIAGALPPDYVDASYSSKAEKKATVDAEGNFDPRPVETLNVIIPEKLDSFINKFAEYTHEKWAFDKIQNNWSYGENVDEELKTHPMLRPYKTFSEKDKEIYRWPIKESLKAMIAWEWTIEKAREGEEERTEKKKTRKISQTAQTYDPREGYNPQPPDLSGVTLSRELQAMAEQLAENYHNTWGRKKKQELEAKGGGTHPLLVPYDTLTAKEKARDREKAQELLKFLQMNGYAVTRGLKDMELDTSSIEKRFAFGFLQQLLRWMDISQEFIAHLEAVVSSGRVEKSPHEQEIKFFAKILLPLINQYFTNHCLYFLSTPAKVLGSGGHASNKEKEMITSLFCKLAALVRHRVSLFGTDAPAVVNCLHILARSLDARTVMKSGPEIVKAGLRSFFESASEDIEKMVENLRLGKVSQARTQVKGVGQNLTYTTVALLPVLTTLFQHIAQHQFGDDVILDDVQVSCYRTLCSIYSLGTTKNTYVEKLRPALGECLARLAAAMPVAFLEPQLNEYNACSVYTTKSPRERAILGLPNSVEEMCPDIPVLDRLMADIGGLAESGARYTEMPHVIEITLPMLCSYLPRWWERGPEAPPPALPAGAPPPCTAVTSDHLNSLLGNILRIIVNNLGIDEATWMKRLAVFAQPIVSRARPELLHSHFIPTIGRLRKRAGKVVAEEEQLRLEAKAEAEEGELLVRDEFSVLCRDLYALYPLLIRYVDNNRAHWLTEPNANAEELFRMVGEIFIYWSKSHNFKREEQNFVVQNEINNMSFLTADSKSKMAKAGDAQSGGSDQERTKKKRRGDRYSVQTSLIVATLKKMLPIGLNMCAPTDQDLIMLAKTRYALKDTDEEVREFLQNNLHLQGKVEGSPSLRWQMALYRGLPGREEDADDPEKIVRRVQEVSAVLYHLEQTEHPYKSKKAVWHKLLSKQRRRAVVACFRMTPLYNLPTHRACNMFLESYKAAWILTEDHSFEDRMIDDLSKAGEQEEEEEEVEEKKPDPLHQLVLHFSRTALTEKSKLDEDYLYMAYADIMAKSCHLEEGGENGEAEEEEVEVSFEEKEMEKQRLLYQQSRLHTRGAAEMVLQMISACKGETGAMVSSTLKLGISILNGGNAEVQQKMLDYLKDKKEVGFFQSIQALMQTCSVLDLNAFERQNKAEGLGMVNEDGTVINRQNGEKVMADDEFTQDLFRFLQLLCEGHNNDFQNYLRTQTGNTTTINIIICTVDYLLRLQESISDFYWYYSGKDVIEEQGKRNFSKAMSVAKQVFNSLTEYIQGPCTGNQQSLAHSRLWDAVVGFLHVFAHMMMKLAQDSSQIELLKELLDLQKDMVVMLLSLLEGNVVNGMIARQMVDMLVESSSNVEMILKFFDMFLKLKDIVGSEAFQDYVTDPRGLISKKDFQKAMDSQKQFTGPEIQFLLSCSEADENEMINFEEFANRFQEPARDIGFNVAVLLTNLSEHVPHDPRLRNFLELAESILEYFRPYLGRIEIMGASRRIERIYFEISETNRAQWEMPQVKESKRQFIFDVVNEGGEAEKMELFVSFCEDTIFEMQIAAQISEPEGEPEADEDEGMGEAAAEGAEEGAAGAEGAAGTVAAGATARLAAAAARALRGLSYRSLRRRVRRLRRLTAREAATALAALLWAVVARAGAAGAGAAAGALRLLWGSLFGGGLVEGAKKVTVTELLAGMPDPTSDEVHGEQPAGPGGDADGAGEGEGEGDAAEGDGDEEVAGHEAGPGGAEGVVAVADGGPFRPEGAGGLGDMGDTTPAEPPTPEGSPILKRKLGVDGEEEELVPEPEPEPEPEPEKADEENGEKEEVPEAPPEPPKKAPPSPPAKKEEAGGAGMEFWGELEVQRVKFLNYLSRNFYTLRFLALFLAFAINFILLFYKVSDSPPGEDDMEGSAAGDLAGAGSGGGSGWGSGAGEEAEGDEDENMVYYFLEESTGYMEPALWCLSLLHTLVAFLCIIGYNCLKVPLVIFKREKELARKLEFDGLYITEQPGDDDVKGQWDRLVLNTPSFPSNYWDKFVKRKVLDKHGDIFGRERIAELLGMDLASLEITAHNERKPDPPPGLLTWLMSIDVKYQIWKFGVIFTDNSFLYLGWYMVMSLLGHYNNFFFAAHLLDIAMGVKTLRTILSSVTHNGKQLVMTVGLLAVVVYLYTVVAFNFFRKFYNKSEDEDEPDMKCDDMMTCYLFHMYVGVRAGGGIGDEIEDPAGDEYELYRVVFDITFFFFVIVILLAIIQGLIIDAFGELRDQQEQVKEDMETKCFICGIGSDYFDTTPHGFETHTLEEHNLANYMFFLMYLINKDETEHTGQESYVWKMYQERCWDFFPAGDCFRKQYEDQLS
Description: A heavy fraction of fragmented SR vesicles (HSR) containing junctional SR was prepared from rabbit fast-twitch back and leg muscles as described previously.
(§1) Single-channel recordings of rabbit skeletal RyR1 incorporated into planar lipid bilayers were carried out as described previously. Lipid bilayers, consisting of brain tissue phosphatidylethanolamine and phosphatidylserine (1 : 1) in decane (20 mg/mL) were formed across a hole of approximately 200 μm diameter. Thinning of the bilayer was monitored by bilayer capacitance. The basic composition of the cis/trans solution consisted of 300 mM cesium methanesulfonate, 10 mM Tris/Hepes (pH 7.2), 2 mM EGTA, and 1.998 mM CaCl2 ([Ca^2+]free = 10 μM). [Ca^2+]free was calculated using the “Chelator” program (Theo Schoenmaker). Cs^+ was selected as the charge carrier to ensure precise control of free [Ca^2+], to increase the channel conductance, and to avoid any contribution from potassium channels present in the SR membrane. Chloride channels were inhibited by using the impermeant anion methanesulfonate. Incorporation of ion channels was carried out as described by Miller and Racker and confirmed by recording the characteristically high single-channel conductance of RyRs. The trans side was maintained at ground and the cis side was clamped at −30 mV relative to the ground. After addition of the IpTxa to the cis chamber, the single channel data were collected at −30 mV for 2–5 min. […] Recordings were filtered with an 8-pole low-pass Bessel filter at 1 kHz and digitalized through a Digidata 1200 series interface (Axon Instruments). Data acquisition and analysis were done with the Axon Instruments software, pClamp v7.0.
(§2) Data were analyzed using the Hill equation described previously:
(§3) (1) Psubstate=(Psubstate, max )/[1+(EC50/[IpTxa])^nH] orPo=(Po, max )/[1+(EC50/[IpTxa])^nH], where (Po, max ) is the Po observed at saturating concentrations of IpTxa, EC50 is the IpTxa concentration for which 50% of Po, max is obtained and nH is the Hill coefficient. Also, Psubstate, max is the Psubstate observed at saturating concentrations of IpTxa, EC50 is the IpTxa concentration for which 50% of Psubstate, max is obtained, and nH is the Hill coefficient. The probability of full open state of the channel (Po) was defined as the ratio of the time spent in the open state to the total time exclusive of time spent in the substate. The probability to obtain substate (Psubstate) was calculated as the time spent in the substate divided by a given total recording time. The durations of the substate were obtained by manual positioning of the cursors and constructing all point histograms. Mean duration of substate was measured by total substate time divided by total substate frequencies.
(§4) Results are given as means ± SE. Significant differences were analyzed using Student's t-test. Differences were considered to be significant when P < 0.05. The fitting of the data to the graphs were carried out using the software, Origin v7.
To examine how IpTxa modifies RyR1 activity, RyR1 in HSR incorporated in planar lipid bilayers was tested in the presence or absence of synthetic wild-type IpTxa. The chamber solutions for both cis (cytosolic) and trans (luminal) sides included 300 mM cesium methanesulfonate and 10 mM Tris-Hepes (pH 7.2). 10 μM free Ca^2+ was added to the cis side to activate the incorporated RyR1. After an addition of IpTxa to the cis chamber, the single channel gating properties were recorded at a holding potential of −30 mV for over 2 min at each toxin concentration. […] To examine the effects of IpTxa on full open state, we calculated the probability to obtain the full open state (Po) as the time spent in the open state divided by the total time exclusive of the time spent in the substate. The time for recorded Po was in the range of 30 s–2 min. […] The steady-state Po was 0.18 ± 0.02 at 10 μM Ca^2+. […]

purified rabbit RyR1 = target: T2, purified rabbit RyR1 (Oryctolagus cuniculus, UniProt P11716); experiment: Planar lipid bilayer single-channel recording, purified RyR1; format: biochemical
T2 construct: we added IpTxa to purified RyR1 incorporated into planar lipid bilayers; from tissue; host or cells: rabbit skeletal muscle (inferred; purified from HSR)
T2 sequence (P11716 whole entry): as above
Description: as §1, §2, §3, §4
To determine whether the activation of native RyR1 in SR by IpTxa was due to a direct activation of RyR1 or due to an indirect activation through other proteins associated to RyR1, we added IpTxa to purified RyR1 incorporated into planar lipid bilayers (Figure 3(a)). […] Purity of RyR1 at the final purification step was verified by Coomassie blue staining (Supplementary Figure 2).
Figure 3 Effects of IpTxa on purified rabbit RyR1 incorporated in planar lipid bilayers. (a) Single channel activity of purified RyR1 incorporated in planar lipid bilayers at 10 μM Ca^2+ with or without IpTxa (6–100 nM) was recorded. Single channel currents are shown as downward deflections from the closed level (indicated by c). The holding potential was −30 mV. (b) The plot of Po of purified RyR1 versus various concentrations of IpTxa is shown. (c) The plot of Psubstate of purified RyR1 versus various concentrations of IpTxa is shown. The results are shown as the means ± SE for 7 experiments. […]

CC(C)C[C@@H]1NC(=O)[C@H](Cc2c[nH]cn2)NC(=O)[C@@H]2CCCN2C(=O)[C@H](CC(C)C)NC(=O)[C@@H](NC(=O)[C@H](CC(=O)O)NC(=O)CN)CSSC[C@@H]2NC(=O)[C@@H]3CSSC[C@@H](C(=O)N[C@@H](CCCNC(=N)N)C(=O)O)NC(=O)[C@H](CCCNC(=N)N)NC(=O)[C@H](C)NC(=O)[C@H](CCC(=O)O)NC(=O)[C@H](C)NC(=O)[C@H](CC(N)=O)NC(=O)[C@H]([C@@H](C)O)NC(=O)CNC(=O)[C@H](CCCNC(=N)N)NC(=O)[C@H](CCCNC(=N)N)NC(=O)[C@H](CCCCN)NC(=O)[C@H](CSSC[C@H](NC(=O)[C@H](CCCNC(=N)N)NC(=O)[C@H](CCCCN)NC1=O)C(=O)N[C@@H](CCCCN)C(=O)N[C@@H](C)C(=O)N[C@@H](CC(=O)O)C(=O)N[C@@H](CC(N)=O)C(=O)N[C@@H](CC(=O)O)C(=O)N3)NC(=O)[C@H](CCCCN)NC(=O)[C@H](CCCCN)NC(=O)CNC2=O [K30A] (H-GDCLPHLKRCKADNDCCGKKCKRRGTNAEARCR-OH; disulfide 3-17, 10-21, 16-32)
EC50 [1]: 16.7 ± 2.86 nM | EC50 for Psubstate compared with wild type (in words) (purified rabbit RyR1; purified RyR1, 6-100 nM): without a significant change of EC50 | EC50 (purified rabbit RyR1; purified RyR1, toxin cis, 6-100 nM, -30 mV, 10 μM Ca^2+, Hill fit, means ± SE of 4–10 experiments, read-out: EC50 for Psubstate): 15.7 ± 5.99 nM

CC(C)C[C@@H]1NC(=O)[C@H](Cc2c[nH]cn2)NC(=O)[C@@H]2CCCN2C(=O)[C@H](CC(C)C)NC(=O)[C@@H](NC(=O)[C@H](CC(=O)O)NC(=O)CN)CSSC[C@@H]2NC(=O)[C@@H]3CSSC[C@@H](C(=O)N[C@@H](CCCNC(=N)N)C(=O)O)NC(=O)[C@H](CCCNC(=N)N)NC(=O)[C@H](CCCCN)NC(=O)[C@H](CCC(=O)O)NC(=O)[C@H](C)NC(=O)[C@H](CC(N)=O)NC(=O)[C@H]([C@@H](C)O)NC(=O)CNC(=O)[C@H](CCCNC(=N)N)NC(=O)[C@H](CCCNC(=N)N)NC(=O)[C@H](CCCCN)NC(=O)[C@H](CSSC[C@H](NC(=O)[C@H](CCCNC(=N)N)NC(=O)[C@H](CCCCN)NC1=O)C(=O)N[C@@H](CCCCN)C(=O)N[C@@H](C)C(=O)N[C@@H](CC(=O)O)C(=O)N[C@@H](CC(N)=O)C(=O)N[C@@H](CC(=O)O)C(=O)N3)NC(=O)[C@H](C)NC(=O)[C@H](CCCCN)NC(=O)CNC2=O [K20A] (H-GDCLPHLKRCKADNDCCGKACKRRGTNAEKRCR-OH; disulfide 3-17, 10-21, 16-32)
EC50 [1]: 18.5 ± 8.17 nM

CC(C)C[C@@H]1NC(=O)[C@H](Cc2c[nH]cn2)NC(=O)[C@@H]2CCCN2C(=O)[C@H](CC(C)C)NC(=O)[C@@H](NC(=O)[C@H](CC(=O)O)NC(=O)CN)CSSC[C@@H]2NC(=O)[C@@H]3CSSC[C@@H](C(=O)N[C@@H](CCCNC(=N)N)C(=O)O)NC(=O)[C@H](CCCNC(=N)N)NC(=O)[C@H](CCCCN)NC(=O)[C@H](CCC(=O)O)NC(=O)[C@H](C)NC(=O)[C@H](CC(N)=O)NC(=O)[C@H]([C@@H](C)O)NC(=O)CNC(=O)[C@H](CCCNC(=N)N)NC(=O)[C@H](CCCNC(=N)N)NC(=O)[C@H](CCCCN)NC(=O)[C@H](CSSC[C@H](NC(=O)[C@H](CCCNC(=N)N)NC(=O)[C@H](CCCCN)NC1=O)C(=O)N[C@@H](C)C(=O)N[C@@H](C)C(=O)N[C@@H](CC(=O)O)C(=O)N[C@@H](CC(N)=O)C(=O)N[C@@H](CC(=O)O)C(=O)N3)NC(=O)[C@H](CCCCN)NC(=O)[C@H](CCCCN)NC(=O)CNC2=O [K11A] (H-GDCLPHLKRCAADNDCCGKKCKRRGTNAEKRCR-OH; disulfide 3-17, 10-21, 16-32)
EC50 [1]: 21.8 ± 3.49 nM

CC(C)C[C@@H]1NC(=O)[C@H](Cc2c[nH]cn2)NC(=O)[C@@H]2CCCN2C(=O)[C@H](CC(C)C)NC(=O)[C@@H](NC(=O)[C@H](CC(=O)O)NC(=O)CN)CSSC[C@@H]2NC(=O)[C@@H]3CSSC[C@@H](C(=O)N[C@@H](CCCNC(=N)N)C(=O)O)NC(=O)[C@H](CCCNC(=N)N)NC(=O)[C@H](CCCCN)NC(=O)[C@H](CCC(=O)O)NC(=O)[C@H](C)NC(=O)[C@H](CC(N)=O)NC(=O)[C@H]([C@@H](C)O)NC(=O)CNC(=O)[C@H](CCCNC(=N)N)NC(=O)[C@H](C)NC(=O)[C@H](CCCCN)NC(=O)[C@H](CSSC[C@H](NC(=O)[C@H](CCCNC(=N)N)NC(=O)[C@H](CCCCN)NC1=O)C(=O)N[C@@H](CCCCN)C(=O)N[C@@H](C)C(=O)N[C@@H](CC(=O)O)C(=O)N[C@@H](CC(N)=O)C(=O)N[C@@H](CC(=O)O)C(=O)N3)NC(=O)[C@H](CCCCN)NC(=O)[C@H](CCCCN)NC(=O)CNC2=O [R23A] (H-GDCLPHLKRCKADNDCCGKKCKARGTNAEKRCR-OH; disulfide 3-17, 10-21, 16-32)
EC50 [1]: 19.5 ± 9.36 nM

CC(C)C[C@@H]1NC(=O)[C@H](Cc2c[nH]cn2)NC(=O)[C@@H]2CCCN2C(=O)[C@H](CC(C)C)NC(=O)[C@@H](NC(=O)[C@H](C)NC(=O)CN)CSSC[C@@H]2NC(=O)[C@@H]3CSSC[C@@H](C(=O)N[C@@H](CCCNC(=N)N)C(=O)O)NC(=O)[C@H](CCCNC(=N)N)NC(=O)[C@H](CCCCN)NC(=O)[C@H](CCC(=O)O)NC(=O)[C@H](C)NC(=O)[C@H](CC(N)=O)NC(=O)[C@H]([C@@H](C)O)NC(=O)CNC(=O)[C@H](CCCNC(=N)N)NC(=O)[C@H](CCCNC(=N)N)NC(=O)[C@H](CCCCN)NC(=O)[C@H](CSSC[C@H](NC(=O)[C@H](CCCNC(=N)N)NC(=O)[C@H](CCCCN)NC1=O)C(=O)N[C@@H](CCCCN)C(=O)N[C@@H](C)C(=O)N[C@@H](CC(=O)O)C(=O)N[C@@H](CC(N)=O)C(=O)N[C@@H](CC(=O)O)C(=O)N3)NC(=O)[C@H](CCCCN)NC(=O)[C@H](CCCCN)NC(=O)CNC2=O [D2A] (H-GACLPHLKRCKADNDCCGKKCKRRGTNAEKRCR-OH; disulfide 3-17, 10-21, 16-32)
EC50 [1]: 28.6 ± 14 nM

CC(C)C[C@@H]1NC(=O)[C@H](Cc2c[nH]cn2)NC(=O)[C@@H]2CCCN2C(=O)[C@H](CC(C)C)NC(=O)[C@@H](NC(=O)[C@H](CC(=O)O)NC(=O)CN)CSSC[C@@H]2NC(=O)[C@@H]3CSSC[C@@H](C(=O)N[C@@H](CCCNC(=N)N)C(=O)O)NC(=O)[C@H](CCCNC(=N)N)NC(=O)[C@H](CCCCN)NC(=O)[C@H](C)NC(=O)[C@H](C)NC(=O)[C@H](CC(N)=O)NC(=O)[C@H]([C@@H](C)O)NC(=O)CNC(=O)[C@H](CCCNC(=N)N)NC(=O)[C@H](CCCNC(=N)N)NC(=O)[C@H](CCCCN)NC(=O)[C@H](CSSC[C@H](NC(=O)[C@H](CCCNC(=N)N)NC(=O)[C@H](CCCCN)NC1=O)C(=O)N[C@@H](CCCCN)C(=O)N[C@@H](C)C(=O)N[C@@H](CC(=O)O)C(=O)N[C@@H](CC(N)=O)C(=O)N[C@@H](CC(=O)O)C(=O)N3)NC(=O)[C@H](CCCCN)NC(=O)[C@H](CCCCN)NC(=O)CNC2=O [E29A] (H-GDCLPHLKRCKADNDCCGKKCKRRGTNAAKRCR-OH; disulfide 3-17, 10-21, 16-32)
EC50 [1]: 6.07 ± 4.28 nM
